# Key:
# AURKA = AURKA (Homo sapiens, UniProt O14965); experiment: Kinase selectivity panel; format: biochemical
# RSK3 = RSK3 (Homo sapiens, UniProt Q15349); experiment: Kinase selectivity panel; format: biochemical
# HCK = HCK (Homo sapiens, UniProt P08631); experiment: Kinase selectivity panel; format: biochemical
# CDK9 = CDK9 (Homo sapiens, UniProt P50750); experiment: Kinase selectivity panel; format: biochemical
# AKT3 = AKT3 (Homo sapiens, UniProt Q9Y243); experiment: Kinase selectivity panel; format: biochemical
# ATR = ATR (Homo sapiens, UniProt Q13535); experiment: Kinase selectivity panel; format: biochemical
# [1] = B32B3 stability assessment in plasma; format: in vitro ADME; settings: mouse plasma
# Experimental: To assess the metabolic stability of B32B3 in mouse, dog, monkey, and human plasma, the compound was spiked into blank plasma to a concentration of 10 μM. At 0, 15, 30, 60, 90, and 120 min time points, a 30 μl aliquot was collected and mixed with 270 μl acetonitrile solution for protein precipitation. After centrifugation, the supernatant was analyzed by LC-MS/MS. In vitro half-life of B32B3 in plasma was calculated using the slope (k) of the log-linear regression from the concentration remaining parent compound versus time. T1/2=−ln 2/k Mouse Pharmacokinetics of B32B3
# VRK2 = VRK2 (Homo sapiens, UniProt Q86Y07); experiment: Kinase selectivity panel; format: biochemical
# RSK2 = RSK2 (Homo sapiens, UniProt P51812); experiment: Kinase selectivity panel; format: biochemical
# PLK2 = PLK2 (Homo sapiens, UniProt Q9NYY3); experiment: Kinase selectivity panel; format: biochemical
# Chain of PLK2 (Q9NYY3 whole entry): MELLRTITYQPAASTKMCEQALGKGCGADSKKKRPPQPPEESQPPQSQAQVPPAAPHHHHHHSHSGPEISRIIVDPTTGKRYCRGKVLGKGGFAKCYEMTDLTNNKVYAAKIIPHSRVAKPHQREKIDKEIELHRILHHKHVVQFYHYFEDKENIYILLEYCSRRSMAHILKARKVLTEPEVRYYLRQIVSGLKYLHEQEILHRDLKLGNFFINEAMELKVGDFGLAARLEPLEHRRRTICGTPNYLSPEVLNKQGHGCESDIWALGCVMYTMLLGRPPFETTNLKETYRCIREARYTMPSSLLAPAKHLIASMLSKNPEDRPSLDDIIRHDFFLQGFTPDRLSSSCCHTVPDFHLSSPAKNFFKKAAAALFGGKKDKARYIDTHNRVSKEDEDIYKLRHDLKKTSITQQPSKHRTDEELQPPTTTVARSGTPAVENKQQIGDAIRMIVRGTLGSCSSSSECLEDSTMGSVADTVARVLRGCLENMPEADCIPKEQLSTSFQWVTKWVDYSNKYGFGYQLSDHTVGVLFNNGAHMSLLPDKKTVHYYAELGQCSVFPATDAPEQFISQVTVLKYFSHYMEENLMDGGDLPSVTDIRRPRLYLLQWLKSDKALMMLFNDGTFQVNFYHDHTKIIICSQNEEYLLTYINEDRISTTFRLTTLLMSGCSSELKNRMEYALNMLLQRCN
# Chain of RSK2 (P51812 whole entry): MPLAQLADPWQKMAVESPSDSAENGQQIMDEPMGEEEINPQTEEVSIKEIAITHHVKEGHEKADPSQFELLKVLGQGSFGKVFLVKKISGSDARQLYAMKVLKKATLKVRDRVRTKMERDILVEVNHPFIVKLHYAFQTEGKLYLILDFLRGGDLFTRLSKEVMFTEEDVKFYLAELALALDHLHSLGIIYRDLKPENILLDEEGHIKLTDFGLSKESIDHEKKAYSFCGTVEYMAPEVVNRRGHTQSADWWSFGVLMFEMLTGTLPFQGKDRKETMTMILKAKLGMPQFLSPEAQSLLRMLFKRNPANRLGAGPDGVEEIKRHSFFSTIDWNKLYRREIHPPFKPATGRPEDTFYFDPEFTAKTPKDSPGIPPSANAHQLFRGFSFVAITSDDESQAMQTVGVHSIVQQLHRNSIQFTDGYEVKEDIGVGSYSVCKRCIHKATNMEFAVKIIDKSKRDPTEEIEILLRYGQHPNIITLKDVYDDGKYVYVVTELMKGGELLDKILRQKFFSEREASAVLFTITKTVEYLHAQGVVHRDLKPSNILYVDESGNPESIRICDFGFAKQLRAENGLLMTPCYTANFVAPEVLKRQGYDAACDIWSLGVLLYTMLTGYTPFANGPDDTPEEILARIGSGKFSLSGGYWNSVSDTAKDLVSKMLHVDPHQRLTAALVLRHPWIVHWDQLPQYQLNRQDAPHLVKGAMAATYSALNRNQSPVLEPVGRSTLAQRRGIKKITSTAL
# Chain of VRK2 (Q86Y07 whole entry): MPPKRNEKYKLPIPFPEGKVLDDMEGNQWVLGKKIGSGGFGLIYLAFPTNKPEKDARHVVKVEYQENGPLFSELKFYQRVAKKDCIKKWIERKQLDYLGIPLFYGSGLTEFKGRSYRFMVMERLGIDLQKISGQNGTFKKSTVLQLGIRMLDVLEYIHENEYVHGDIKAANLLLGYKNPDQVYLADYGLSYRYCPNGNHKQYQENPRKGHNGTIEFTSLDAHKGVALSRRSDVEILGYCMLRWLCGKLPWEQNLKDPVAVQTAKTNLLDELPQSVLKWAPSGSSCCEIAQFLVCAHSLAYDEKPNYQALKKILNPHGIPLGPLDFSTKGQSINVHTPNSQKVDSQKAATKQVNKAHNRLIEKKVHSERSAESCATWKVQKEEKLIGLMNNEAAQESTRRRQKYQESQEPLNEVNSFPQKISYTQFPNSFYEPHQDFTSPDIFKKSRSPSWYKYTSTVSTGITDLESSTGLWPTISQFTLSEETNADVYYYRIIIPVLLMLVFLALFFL
# Chain of CDK9 (P50750 whole entry): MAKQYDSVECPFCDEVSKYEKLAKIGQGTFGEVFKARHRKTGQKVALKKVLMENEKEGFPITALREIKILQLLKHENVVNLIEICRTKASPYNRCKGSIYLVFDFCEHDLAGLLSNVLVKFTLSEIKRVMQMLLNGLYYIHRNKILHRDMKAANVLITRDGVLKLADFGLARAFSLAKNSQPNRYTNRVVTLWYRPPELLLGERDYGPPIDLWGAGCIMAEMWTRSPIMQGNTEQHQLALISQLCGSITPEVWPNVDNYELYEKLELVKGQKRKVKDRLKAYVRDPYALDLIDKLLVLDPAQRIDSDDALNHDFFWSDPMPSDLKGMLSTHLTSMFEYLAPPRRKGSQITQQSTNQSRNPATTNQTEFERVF
# Chain of CDK9 (O60563 whole entry partner): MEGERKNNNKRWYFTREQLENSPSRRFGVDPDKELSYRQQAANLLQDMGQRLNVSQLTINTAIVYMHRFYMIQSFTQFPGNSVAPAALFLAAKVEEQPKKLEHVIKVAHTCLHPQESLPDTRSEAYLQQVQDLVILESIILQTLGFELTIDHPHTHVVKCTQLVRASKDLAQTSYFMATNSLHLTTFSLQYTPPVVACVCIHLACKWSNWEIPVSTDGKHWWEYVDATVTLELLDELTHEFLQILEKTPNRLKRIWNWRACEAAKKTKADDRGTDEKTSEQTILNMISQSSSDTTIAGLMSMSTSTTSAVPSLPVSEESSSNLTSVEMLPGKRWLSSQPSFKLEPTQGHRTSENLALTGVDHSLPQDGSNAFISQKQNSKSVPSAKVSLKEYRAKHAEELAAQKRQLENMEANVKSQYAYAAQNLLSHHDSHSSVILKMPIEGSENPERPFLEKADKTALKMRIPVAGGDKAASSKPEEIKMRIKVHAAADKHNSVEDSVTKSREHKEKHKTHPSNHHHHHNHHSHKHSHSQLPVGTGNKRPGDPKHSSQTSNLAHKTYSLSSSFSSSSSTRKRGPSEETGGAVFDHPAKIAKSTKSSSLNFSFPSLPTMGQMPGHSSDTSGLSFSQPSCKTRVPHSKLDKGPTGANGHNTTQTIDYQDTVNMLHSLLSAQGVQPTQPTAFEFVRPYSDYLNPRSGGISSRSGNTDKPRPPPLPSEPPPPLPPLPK
# Chain of AKT3 (Q9Y243 whole entry): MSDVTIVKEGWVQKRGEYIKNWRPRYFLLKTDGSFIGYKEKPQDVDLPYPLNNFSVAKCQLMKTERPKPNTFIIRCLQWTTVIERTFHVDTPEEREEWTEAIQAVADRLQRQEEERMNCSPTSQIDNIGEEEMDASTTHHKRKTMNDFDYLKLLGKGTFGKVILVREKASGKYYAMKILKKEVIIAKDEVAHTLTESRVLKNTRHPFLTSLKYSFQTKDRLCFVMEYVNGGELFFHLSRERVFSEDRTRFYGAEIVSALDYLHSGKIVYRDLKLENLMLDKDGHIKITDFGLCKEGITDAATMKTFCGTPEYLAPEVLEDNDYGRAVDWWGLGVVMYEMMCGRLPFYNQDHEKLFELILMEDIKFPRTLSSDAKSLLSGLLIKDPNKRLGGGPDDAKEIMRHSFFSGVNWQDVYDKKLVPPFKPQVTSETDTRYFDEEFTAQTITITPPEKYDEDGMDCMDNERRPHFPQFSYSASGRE
# Chain of RSK3 (Q15349 whole entry): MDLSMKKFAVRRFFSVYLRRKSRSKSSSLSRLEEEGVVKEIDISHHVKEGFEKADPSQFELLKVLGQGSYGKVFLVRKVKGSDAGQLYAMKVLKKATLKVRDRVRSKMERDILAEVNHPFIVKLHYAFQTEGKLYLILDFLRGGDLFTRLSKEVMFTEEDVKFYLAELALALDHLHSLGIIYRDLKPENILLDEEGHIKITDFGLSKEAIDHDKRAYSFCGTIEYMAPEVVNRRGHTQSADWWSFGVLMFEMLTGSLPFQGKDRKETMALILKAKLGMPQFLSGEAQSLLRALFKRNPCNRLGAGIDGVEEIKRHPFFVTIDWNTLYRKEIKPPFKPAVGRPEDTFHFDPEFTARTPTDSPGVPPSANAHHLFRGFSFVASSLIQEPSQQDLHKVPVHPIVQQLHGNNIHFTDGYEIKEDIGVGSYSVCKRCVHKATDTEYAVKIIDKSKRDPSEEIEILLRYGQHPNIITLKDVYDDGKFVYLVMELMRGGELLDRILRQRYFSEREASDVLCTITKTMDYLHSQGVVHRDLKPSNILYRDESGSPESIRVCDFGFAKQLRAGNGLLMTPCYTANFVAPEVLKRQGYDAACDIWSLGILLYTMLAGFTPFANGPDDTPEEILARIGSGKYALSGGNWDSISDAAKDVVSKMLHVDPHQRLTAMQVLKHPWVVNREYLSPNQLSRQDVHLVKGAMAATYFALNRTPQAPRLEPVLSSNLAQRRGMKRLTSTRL
# Chain of HCK (P08631 whole entry): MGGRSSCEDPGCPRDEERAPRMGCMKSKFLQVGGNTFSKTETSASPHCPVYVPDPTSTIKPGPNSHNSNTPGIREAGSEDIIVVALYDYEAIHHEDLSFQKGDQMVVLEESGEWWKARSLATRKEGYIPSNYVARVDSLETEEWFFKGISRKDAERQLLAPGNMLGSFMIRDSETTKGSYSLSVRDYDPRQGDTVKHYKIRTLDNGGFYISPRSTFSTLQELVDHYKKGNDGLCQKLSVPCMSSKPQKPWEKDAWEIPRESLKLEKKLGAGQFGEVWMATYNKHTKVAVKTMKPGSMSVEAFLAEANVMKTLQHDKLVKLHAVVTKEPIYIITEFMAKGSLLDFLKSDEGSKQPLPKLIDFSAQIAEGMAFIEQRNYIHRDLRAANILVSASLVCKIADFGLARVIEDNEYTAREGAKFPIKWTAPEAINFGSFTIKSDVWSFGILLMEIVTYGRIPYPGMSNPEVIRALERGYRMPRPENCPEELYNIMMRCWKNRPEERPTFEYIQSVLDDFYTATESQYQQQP
smiles,measurement,setting,value
c1ccc2c(CNNc3ncnc4sc5c(c34)CCCC5)c[nH]c2c1 [B32B3],IC50,AURKA,> 10 µM
same,IC50,RSK3,> 10 µM
same,IC50,HCK,> 10 µM
same,IC50,CDK9,> 10 µM
same,IC50,AKT3,> 10 µM
same,IC50,ATR,> 10 µM
same,half-life at 10 μM,[1],~7 h
same,IC50,VRK2,> 10 µM
same,IC50,RSK2,8.6 µM
same,IC50,PLK2,> 10 µM

# Reference: US9234018B2, “Compositions and methods for the treatment of VprBP-related cancers” (University of Southern California, priority 2013, dated 2016)
